Assay [1] deals with progesterone receptor (PR). Set-up: method as in PMID 18515094, PMID 24552459, PMID 11953818. Particulars: mibolerone eliminates PR expression; 5α-dehydrotestosterone reduces PR to basal levels; ref [1]–[4]; cited from earlier work.
The test system of assay [2] is Leishmania major promastigotes. As to the kind of experiment: leishmanicidal activity assay (72 h, microscopic counting). Conditions: for IC50: Leishmania major, read-out: Leishmanicidal activity IC50 ± SD. The assay is classed as cell-based. As for the experimental part:
Leishmania major (DESTO, Pakistan) was cultured in a mixture of NNN-biphasic medium, and normal physiological saline solution. L. major promastigotes were grown on RPMI 1640 medium, supplemented with fetal bovine serum (FBS) (10% heat inactivated). Parasites were centrifuged (at log phase) for 10 min at 2,000 rpm and washed thrice with saline. The final density of fresh culture (10^6 cells/mL) was acquired through dilution of parasites. Sample solution of 1 mg of test compounds was prepared in a mixture 50 μL of DMSO and 950 μL of RPMI media. Fully dissolved compounds were transferred to 96-well plate. The first row of 96-well plate received 180 μL of the medium, while the remaining wells received 100 μL medium. Test compounds (20 μL each) were added into the medium containing wells, followed by serial dilution. The parasite culture (100 μL) was then transferred to each well. Negative controls comprised of only the growth medium, while standard leishmanicidal drugs (amphotericin or pentamidine) were used as positive controls. The plate was then incubated for 72 h at 21–22°C. The inhibitory effect of test compounds on the culture was analyzed microscopically on an improved Neubauer counting chamber. IC50 values were calculated through Ezfit 5.03 Perella Scientific software (USA).

The subject of assay [3] is HeLa cancer cell line (human cervical carcinoma). As to the kind of experiment: MTT cytotoxicity assay, HeLa. In kind it is cell-based. Conditions: 24 hours treatment, read-out: HeLa Cell line IC50 ± SD. The protocol:
(§1) MTT (3-(4,5-dimethyl thiazol-2yl)-2,5-diphenyl tetrazolium bromide) assay was employed to study the cytotoxic activity against HeLa (human cervical carcinoma, provided by Prof. Dr. Anwar Ali Siddiqui from Aga Khan University, Karachi, Pakistan), and mouse fibroblast 3T3 (ATCC® CRL-1658, purchased from American Type Culture Collection, ATCC, Virginia, USA) cell lines. The cells (1 × 10^5 /well) were plated in 0.2 mL of DMEM high glucose medium/well in 96-well plates. The cells were treated for 24 hours with test compounds in the range of 25, 50, 75, 100, and 200 μM concentrations, respectively. For the MTT assay, the medium from the wells was removed carefully after 24 hours treatment. Each well was washed with 1X PBS for 2–3 times, and 200 μL of MTT (5 mg/mL) was added in to media containing wells (1:10). The plates were incubated for 4 hours at 37°C, in a 5% CO2 incubator. After incubation, MTT was removed and 0.1 mL of DMSO was added to each well and mixed by keeping on a stirrer. The presence of viable cells was visualized by the development of purple color due to formation of the formazan crystals. The plates were observed under spectrophotometer (Spectramax) and absorbance was taken at 545 and 570 nm for cancer and normal cell lines, respectively.
A general note: Formazan colour is commonly taken as a measure of viable cells.

Assay [4] relates to 3T3 cell line (mouse fibroblast). As to the kind of experiment: MTT cytotoxicity assay, 3T3. The assay is classed as cell-based. Conditions: for IC50: read-out: 3T3 Cell line IC50 ± SD. The protocol:
as §1

The target in assay [5] is T1, β-glucuronidase enzyme (E.C. 3.2.1.31, bovine liver) (Bos taurus, UniProt A3KMY8).
T1 sequence (A3KMY8 24-652): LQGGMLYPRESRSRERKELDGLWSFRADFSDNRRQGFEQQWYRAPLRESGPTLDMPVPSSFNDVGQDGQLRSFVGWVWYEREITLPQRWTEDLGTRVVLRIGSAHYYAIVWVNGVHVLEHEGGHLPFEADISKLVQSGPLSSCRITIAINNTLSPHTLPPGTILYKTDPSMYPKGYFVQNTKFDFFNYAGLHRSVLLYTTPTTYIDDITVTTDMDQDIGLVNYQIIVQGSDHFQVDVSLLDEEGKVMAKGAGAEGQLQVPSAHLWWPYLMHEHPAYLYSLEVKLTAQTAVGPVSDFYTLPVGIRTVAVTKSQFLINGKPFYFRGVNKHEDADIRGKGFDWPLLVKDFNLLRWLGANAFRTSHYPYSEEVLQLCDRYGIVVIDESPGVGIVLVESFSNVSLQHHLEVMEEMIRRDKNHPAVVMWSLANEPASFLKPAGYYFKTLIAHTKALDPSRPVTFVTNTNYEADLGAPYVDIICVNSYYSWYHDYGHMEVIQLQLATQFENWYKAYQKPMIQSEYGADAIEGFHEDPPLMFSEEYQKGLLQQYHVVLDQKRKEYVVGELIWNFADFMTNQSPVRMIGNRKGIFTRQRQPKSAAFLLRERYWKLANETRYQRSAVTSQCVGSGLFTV
As to the kind of experiment: β-glucuronidase inhibition assay (p-nitrophenyl-β-D-glucuronide, absorbance 405 nm). The assay is classed as biochemical. Particulars: for β-glucuronidase inhibitory activity IC50 ± SD: in vitro, bovine liver enzyme, 37°C, triplicate. The protocol: The inhibition of β-glucuronidase enzyme (E.C. 3.2.1.31, bovine liver) by test compounds was determined on a spectrophotometer by measuring the absorbance of p-nitrophenol at 405 nm, produced from the substrate. The reaction mixture comprised 185 μL of 0.1 M acetate buffer, and 5 μL of test compound solution, and 10 μL of (1U) enzyme solution in a 96-well plate. The mixture was incubated at 37°C for 30 min. The test compounds were solubilized in DMSO (100%), and 5 μL volume was added in each well (2% of total volume). […] The plates were read on a multiplate reader (SpectraMax plus 384) at 405 nm and 37°C, after addition of 50 μL of 0.4 mM p-nitrophenyl-β-D-glucuronide. All assays were performed in triplicate. IC50 values were calculated through EZ-Fit software (Perrella Scientific Inc., Amherst, MA, USA).

The mark [6] stands for this setting: Mus musculus, NIH3T3, 24 hours treatment.
Where [7] appears, read: L. major promastigotes, 72 h at 21–22°C.

Entries after “also recorded” stand apart in the source; their conditions may differ. Where two headings read alike, the source gives them in different places.

As a reminder, the IC50 is the midpoint of a concentration-inhibition curve.

Turning to `C[C@]12CCC(=O)C[C@@H]1CC[C@@H]1[C@@H]2CC[C@]2(C)[C@@H](O)CC[C@@H]12` [5α-dehydrotestosterone], the “dose that eliminates / reduces to basal levels progesterone receptor expression” value in assay [1] is 10 to 100 nM.
Consider `C[C@@H]1[C@H](O)[C@@H](C)/C=C/C=C/C=C/C=C/C=C/C=C/C=C/[C@H](O[C@@H]2O[C@H](C)[C@@H](O)[C@H](N)[C@@H]2O)C[C@@H]2O[C@](O)(C[C@@H](O)C[C@@H](O)[C@H](O)CC[C@@H](O)C[C@@H](O)CC(=O)O[C@H]1C)C[C@H](O)[C@H]2C(=O)O` [Amphotericin B, reference compound], for which, in assay [2] (72 h), the IC50 is 0.29 ± 0.05 µM.
With `N.N.[Cl][Pt][Cl]` [Cisplatin, reference compound], the IC50 in assay [3] was 38.5 ± 1.8 µM; in assay [4] (24 hours treatment), 39.7 ± 2.7 µM.
For the molecule `C[C@@H]1CC2=CC(=O)CC[C@@H]2[C@H]2CC[C@@]3(C)[C@@H](CC[C@]3(C)O)[C@@H]21` [Compound 1, 17β-Hydroxy-7α,17α-dimethylestr-4-en-3-one, reference compound], the half-inhibitory concentration (IC50) in assay [5] came out at 43 ± 1.24 µM; in assay [3] (Homo sapiens, HeLa, 24 h), 35.7 ± 4.46 µM; in assay [4] (setting [6]), 46.3 ± 11.7 µM; in assay [2] (72 h), 29.6 ± 0.88 µM. Also, the “dose that eliminates / reduces to basal levels progesterone receptor expression” value in assay [1] was 1 nM.
For `CC1CC2=CC(=O)CCC2(O)C2CCC3(C)C(CCC3(C)O)C12` (stereo not drawn) [Compound 2, 10β,17β-Dihydroxy-7α,17α-dimethylestr-4-en-3-one], the “β-glucuronidase inhibitory activity IC50 ± SD” value in assay [5] is reported as “Inactive”. The IC50 in assay [3] (Homo sapiens, HeLa, 24 h) worked out at 46.5 ± 5.4 µM; in assay [4] (setting [6]), 43.3 ± 7.7 µM. Also, the “Leishmanicidal activity IC50 ± SD” value in assay [2] (setting [7]) is listed as “Inactive”.
`C[C@H]1[C@@H]2[C@H](CC[C@@]3(C)[C@H]2CC[C@]3(C)O)[C@H]2CCC(=O)C=C2[C@@H]1O` [Compound 3, 6β,17β-Dihydroxy-7α,17α-dimethylestr-4-en-3-one]: in assay [5], the “β-glucuronidase inhibitory activity IC50 ± SD” value is “Inactive”. Moreover, the IC50 was determined as 108 ± 4 µM in assay [3] (Homo sapiens, HeLa, 24 h); 65.6 ± 2.5 µM in assay [4] (setting [6]); 79.09 ± 0.06 µM in assay [2] (72 h).
For the molecule `CC1C(O)C2=CC(=O)CCC2(O)C2CCC3(C)C(CCC3(C)O)C12` (stereo not drawn) [Compound 4, 6β,10β,17β-Trihydroxy-7α,17α-dimethylestr-4-en-3-one], the “β-glucuronidase inhibitory activity IC50 ± SD” value in assay [5] was “Inactive”. The IC50 in assay [3] (Homo sapiens, HeLa, 24 h) came out at 152 ± 2.1 µM; in assay [4] (setting [6]) it was 89.4 ± 2.7 µM. The “Leishmanicidal activity IC50 ± SD” value in assay [2] (setting [7]) is recorded as “Inactive”.
With `CC1CC2=CC(=O)CCC2C2C(O)CC3(C)C(CCC3(C)O)C12` (stereo not drawn) [Compound 8, 11β,17β-Dihydroxy-7α,17α-dimethylestr-4-en-3-one], in assay [5], the “β-glucuronidase inhibitory activity IC50 ± SD” value is recorded as “Inactive”. In addition, the IC50 came out at 34.1 ± 5.3 µM in assay [3]; 34.2 ± 5.3 µM in assay [3] (Homo sapiens, HeLa, 24 h); 70.09 ± 0.05 µM in assay [2] (72 h). In addition, the “3T3 Cell line IC50 ± SD” value in assay [4] (24 hours treatment) is on record as “no cytotoxicity; also recorded: Inactive”.
Take `N=C(N)c1ccc(OCCCCCOc2ccc(C(=N)N)cc2)cc1` [Pentamidine, reference compound]: the IC50 in assay [2] (setting [7]) was found to be 5.09 ± 0.09 µM.

The values are drawn from paper PMC5325191, “Biotransformation of a potent anabolic steroid, mibolerone, with Cunninghamella blakesleeana, C. echinulata, and Macrophomina phaseolina, and biological activity evaluation of its metabolites” (PLoS ONE, 2017).
